Reference: patent publication US9663460B2, “Sulfur derivatives as chemokine receptor modulators” (ALLERGAN, INC., priority 2010, dated 2017)

Biological target: CCR2 (Homo sapiens (Human), UniProt P41597)
Experiment: Calcium activity assayed on the FLIPR Tetra in HEK-Gqi5 cells stably expressing CCR2
Assay type: cell-based
Conditions: FLIPR Tetra calcium assay

CCR2, sequence (P41597 whole entry, species assumed): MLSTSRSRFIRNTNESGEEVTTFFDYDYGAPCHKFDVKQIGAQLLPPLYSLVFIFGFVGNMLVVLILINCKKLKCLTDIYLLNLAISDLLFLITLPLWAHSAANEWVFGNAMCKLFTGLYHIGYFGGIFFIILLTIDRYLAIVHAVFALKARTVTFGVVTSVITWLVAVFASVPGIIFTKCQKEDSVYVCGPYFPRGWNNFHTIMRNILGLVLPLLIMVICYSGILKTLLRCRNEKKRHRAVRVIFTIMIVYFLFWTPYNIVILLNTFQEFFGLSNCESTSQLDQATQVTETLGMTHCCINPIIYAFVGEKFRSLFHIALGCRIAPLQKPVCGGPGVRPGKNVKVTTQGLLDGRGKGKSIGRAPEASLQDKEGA

| CCR2 % ANTAGONISM [%] | IC50 [nM] | Structure (SMILES) |
| --- | --- | --- |
| 106 | 2040 | CN(C)CCCSc1ccc(Cl)cc1NS(=O)(=O)c1cc2ccccc2o1 [N-(5-chloro-2-{[3-(dimethylamino)propyl]thio}phenyl)-1-benzofuran-2-sulfonamide] |
| 83 | – | C[N+](C)([O-])CCCS(=O)(=O)c1ccc(Cl)cc1NS(=O)(=O)c1cc2ccccc2o1 [N-(5-chloro-2-{[3-(dimethylnitroryl)propyl]sulfonyl}phenyl)-1-benzofuran-2-sulfonamide] |
| 101 | 846 | O=S(=O)(Nc1cc(Cl)ccc1[S+]([O-])Cc1cccc[n+]1[O-])c1cc2ccccc2o1 (stereo not drawn) [N-(5-chloro-2-{[(1-oxidopyridin-2-yl)methyl]sulfinyl}phenyl)-1-benzofuran-2-sulfonamide] |
| 102 | 663 | O=S(=O)(Cc1cccc[n+]1[O-])c1ccc(Cl)cc1NS(=O)(=O)c1cc2ccccc2o1 [N-(5-chloro-2-{[(1-oxidopyridin-2-yl)methyl]sulfonyl}phenyl)-1-benzofuran-2-sulfonamide] |
| 101 | 646 | O=S(=O)(Nc1cc(Cl)ccc1[S+]([O-])Cc1ccc[n+]([O-])c1)c1cc2ccccc2o1 (stereo not drawn) [N-(5-chloro-2-{[(1-oxidopyridin-3-yl)methyl]sulfinyl}phenyl)-1-benzofuran-2-sulfonamide] |
| 81 | 1750 | O=S(=O)(Cc1ccc[n+]([O-])c1)c1ccc(Cl)cc1NS(=O)(=O)c1cc2ccccc2o1 [N-(5-chloro-2-{[(1-oxidopyridin-3-yl)methyl]sulfonyl}phenyl)-1-benzofuran-2-sulfonamide] |
| 93 | 806 | CCCn1cnc(C[S+]([O-])c2ccc(Cl)cc2NS(=O)(=O)c2cc3ccccc3o2)c1 (stereo not drawn) [N-(5-chloro-2-{[(1-propyl-1H-imidazol-4-yl)methyl]sulfinyl}phenyl)-1-benzofuran-2-sulfonamide] |
| 98 | 804 | CCCn1cnc(CS(=O)(=O)c2ccc(Cl)cc2NS(=O)(=O)c2cc3ccccc3o2)c1 [N-(5-chloro-2-{[(1-propyl-1H-imidazol-4-yl)methyl]sulfonyl}phenyl)-1-benzofuran-2-sulfonamide] |
| 79 | 1280 | CCCn1cnc(CSc2ccc(Cl)cc2NS(=O)(=O)c2cc3ccccc3o2)c1 [N-(5-chloro-2-{[(1-propyl-1H-imidazol-4-yl)methyl]thio}phenyl)-1-benzofuran-2-sulfonamide] |
| 21 | 3080 | O=c1[nH]cc(C[S+]([O-])c2ccc(Cl)cc2NS(=O)(=O)c2cc3ccccc3o2)c(=O)[nH]1 (stereo not drawn) [N-(5-chloro-2-{[(2,4-dioxo-1,2,3,4-tetrahydropyrimidin-5-yl)methyl]sulfinyl}phenyl)-1-benzofuran-2-sulfonamide] |
| 0 | – | O=c1[nH]cc(CS(=O)(=O)c2ccc(Cl)cc2NS(=O)(=O)c2cc3ccccc3o2)c(=O)[nH]1 [N-(5-chloro-2-{[(2,4-dioxo-1,2,3,4-tetrahydropyrimidin-5-yl)methyl]sulfonyl}phenyl)-1-benzofuran-2-sulfonamide] |
| 62 | – | O=c1cc(C[S+]([O-])c2ccc(Cl)cc2NS(=O)(=O)c2cc3ccccc3o2)[nH]c(=O)[nH]1 (stereo not drawn) [N-(5-chloro-2-{[(2,6-dioxo-1,2,3,6-tetrahydropyrimidin-4-yl)methyl]sulfinyl}phenyl)-1-benzofuran-2-sulfonamide] |
| 70 | – | O=c1cc(CS(=O)(=O)c2ccc(Cl)cc2NS(=O)(=O)c2cc3ccccc3o2)[nH]c(=O)[nH]1 [N-(5-chloro-2-{[(2,6-dioxo-1,2,3,6-tetrahydropyrimidin-4-yl)methyl]sulfonyl}phenyl)-1-benzofuran-2-sulfonamide] |
| 98 | 2370 | O=c1cc(CSc2ccc(Cl)cc2NS(=O)(=O)c2cc3ccccc3o2)[nH]c(=O)[nH]1 [N-(5-chloro-2-{[(2,6-dioxo-1,2,3,6-tetrahydropyrimidin-4-yl)methyl]thio}phenyl)-1-benzofuran-2-sulfonamide] |
| 95 | 79 | O=S(=O)(Nc1cc(Cl)ccc1[S+]([O-])Cc1cccnc1F)c1cc2ccccc2o1 (stereo not drawn) [N-(5-chloro-2-{[(2-fluoropyridin-3-yl)methyl]sulfinyl}phenyl)-1-benzofuran-2-sulfonamide] |
| 88 | 79 | O=S(=O)(Cc1cccnc1F)c1ccc(Cl)cc1NS(=O)(=O)c1cc2ccccc2o1 [N-(5-chloro-2-{[(2-fluoropyridin-3-yl)methyl]sulfonyl}phenyl)-1-benzofuran-2-sulfonamide] |
| 76 | 94 | O=S(=O)(Nc1cc(Cl)ccc1SCc1cccnc1F)c1cc2ccccc2o1 [N-(5-chloro-2-{[(2-fluoropyridin-3-yl)methyl]thio}phenyl)-1-benzofuran-2-sulfonamide] |
| 79 | 2130 | O=C1NCC(C[S+]([O-])c2ccc(Cl)cc2NS(=O)(=O)c2cc3ccccc3o2)O1 (stereo not drawn) [N-(5-chloro-2-{[(2-oxo-1,3-oxazolidin-5-yl)methyl]sulfinyl}phenyl)-1-benzofuran-2-sulfonamide] |
| 98 | 2560 | O=C1NCC(CS(=O)(=O)c2ccc(Cl)cc2NS(=O)(=O)c2cc3ccccc3o2)O1 (stereo not drawn) [N-(5-chloro-2-{[(2-oxo-1,3-oxazolidin-5-yl)methyl]sulfonyl}phenyl)-1-benzofuran-2-sulfonamide] |
| 94 | 752 | O=[N+]([O-])c1cc(C[S+]([O-])c2ccc(Cl)cc2NS(=O)(=O)c2cc3ccccc3o2)n[nH]1 (stereo not drawn) [N-(5-chloro-2-{[(5-nitro-1H-pyrazol-3-yl)methyl]sulfinyl}phenyl)-1-benzofuran-2-sulfonamide] |

| CCR2 % ANTAGONISM [%] | IC50 [nM] | Structure (SMILES) |
| --- | --- | --- |
| 91 | – | O=[N+]([O-])c1cc(CSc2ccc(Cl)cc2NS(=O)(=O)c2cc3ccccc3o2)n[nH]1 [N-(5-chloro-2-{[(5-nitro-1H-pyrazol-3-yl)methyl]thio}phenyl)-1-benzofuran-2-sulfonamide] |
| 85 | 27 | O=S(=O)(Nc1cc(Cl)ccc1[S+]([O-])Cc1ccccc1)c1cc2ccccc2o1 (stereo not drawn) [N-[2-(benzylsulfinyl)-5-chlorophenyl]-1-benzofuran-2-sulfonamide] |
| 105 | 50 | N#Cc1ccc([S+]([O-])Cc2ccccc2)c(NS(=O)(=O)c2cc3ccccc3o2)c1 (stereo not drawn) [N-[2-(benzylsulfinyl)-5-cyanophenyl]-1-benzofuran-2-sulfonamide] |
| 90 | 34 | O=S(=O)(Cc1ccccc1)c1ccc(Cl)cc1NS(=O)(=O)c1cc2ccccc2o1 [N-[2-(benzylsulfonyl)-5-chlorophenyl]-1-benzofuran-2-sulfonamide] |
| 95 | 56 | N#Cc1ccc(S(=O)(=O)Cc2ccccc2)c(NS(=O)(=O)c2cc3ccccc3o2)c1 [N-[2-(benzylsulfonyl)-5-cyanophenyl]-1-benzofuran-2-sulfonamide] |
| 90 | 129 | O=S(=O)(Nc1cc(Cl)ccc1SCc1ccccc1)c1cc2ccccc2o1 [N-[2-(benzylthio)-5-chlorophenyl]-1-benzofuran-2-sulfonamide] |
| 78 | 3840 | N#Cc1ccc(SCc2ccccc2)c(NS(=O)(=O)c2cc3ccccc3o2)c1 [N-[2-(benzylthio)-5-cyanophenyl]-1-benzofuran-2-sulfonamide] |
| 64 | 1890 | NC(=O)NCC[S+]([O-])c1ccc(Cl)cc1NS(=O)(=O)c1cc2ccccc2o1 (stereo not drawn) [N-[2-({2-[(aminocarbonyl)amino]ethyl}sulfinyl)-5-chlorophenyl]-1-benzofuran-2-sulfonamide] |
| 68 | 2000 | NC(=O)NCCS(=O)(=O)c1ccc(Cl)cc1NS(=O)(=O)c1cc2ccccc2o1 [N-[2-({2-[(aminocarbonyl)amino]ethyl}sulfonyl)-5-chlorophenyl]-1-benzofuran-2-sulfonamide] |
| 103 | 80 | NC(=O)NCCSc1ccc(Cl)cc1NS(=O)(=O)c1cc2ccccc2o1 [N-[2-({2-[(aminocarbonyl)amino]ethyl}thio)-5-chlorophenyl]-1-benzofuran-2-sulfonamide] |
| 98 | 11 | C[S+]([O-])c1ccc(Cl)cc1NS(=O)(=O)c1cc2ccccc2o1 (stereo not drawn) [N-[5-chloro-2-(methylsulfinyl)phenyl]-1-benzofuran-2-sulfonamide] |
| 98 | 236 | C[S+]([O-])c1ccc(Cl)cc1NS(=O)(=O)c1ccc(F)cc1F (stereo not drawn) [N-[5-chloro-2-(methylsulfinyl)phenyl]-2,4-difluorobenzenesulfonamide] |
| 97 | 54 | C[S+]([O-])c1ccc(Cl)cc1NS(=O)(=O)c1ccc(C(F)(F)F)c([N+](=O)[O-])c1 (stereo not drawn) [N-[5-chloro-2-(methylsulfinyl)phenyl]-3-nitro-4-(trifluoromethyl)benzenesulfonamide] |
| 95 | 258 | C[S+]([O-])c1ccc(Cl)cc1NS(=O)(=O)c1ccc(I)cc1 (stereo not drawn) [N-[5-chloro-2-(methylsulfinyl)phenyl]-4-iodobenzenesulfonamide] |
| 68 | 934 | CC(C)c1ccc(S(=O)(=O)Nc2cc(Cl)ccc2[S+](C)[O-])cc1 (stereo not drawn) [N-[5-chloro-2-(methylsulfinyl)phenyl]-4-isopropylbenzenesulfonamide] |
| 101 | 181 | Cc1ccc(S(=O)(=O)Nc2cc(Cl)ccc2[S+](C)[O-])cc1[N+](=O)[O-] (stereo not drawn) [N-[5-chloro-2-(methylsulfinyl)phenyl]-4-methyl-3-nitrobenzenesulfonamide] |
| 76 | 194 | Cc1ccc(S(=O)(=O)Nc2cc(Cl)ccc2[S+](C)[O-])o1 (stereo not drawn) [N-[5-chloro-2-(methylsulfinyl)phenyl]-5-methylfuran-2-sulfonamide] |
| 48 | – | C[S+]([O-])c1ccc(Cl)cc1NS(=O)(=O)c1ccccc1 (stereo not drawn) [N-[5-chloro-2-(methylsulfinyl)phenyl]benzenesulfonamide] |
| 96 | 2320 | C[S+]([O-])c1ccc(Cl)cc1NS(=O)(=O)c1ccco1 (stereo not drawn) [N-[5-chloro-2-(methylsulfinyl)phenyl]furan-2-sulfonamide] |
